The structures appear in SMILES notation.

Among the data in US20230340011A1 (Asteroid Therapeutics, priority 2022, published 2023) are IC50 and EC50 values, retold here.

Assay [1] addresses SREBP-2 (Homo sapiens (Human), UniProt Q12772). Briefly: In vitro assay SREBP-2: PathHunter U2OS SREBP-2 Nuclear Translocation Cell Line, U18666A-stimulated. As to conditions: PathHunter U2OS SREBP-2 nuclear translocation cells, U18666A 10 μM, overnight (16 hours). The assay is classed as cell-based.
The target of assay [2] is LXRβ (Homo sapiens (Human), UniProt P55055). Kind of assay: In vitro assay LXRβ: PathHunter NHR CHO cells, LXRβ / Steroid Receptor Co-activator Peptide enzyme fragment complementation. The assay is classed as cell-based. Conditions: PathHunter NHR CHO cells, full-length human LXRβ and SRCP, chemiluminescent signal; read-out: LXRβ PPI. An outline of the steps: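 Co-activator recruitment measured by chemiluminescence after signal generation. The CHO line carries full-length human LXRβ tagged with ProLink and an SRCP–enzyme acceptor fusion in the nucleus; cells sat overnight at 37° C before testing, in charcoal-dextran filtered serum medium with 1% final vehicle.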
Sequence of LXRβ (P55055 whole entry, the tested form may be a part): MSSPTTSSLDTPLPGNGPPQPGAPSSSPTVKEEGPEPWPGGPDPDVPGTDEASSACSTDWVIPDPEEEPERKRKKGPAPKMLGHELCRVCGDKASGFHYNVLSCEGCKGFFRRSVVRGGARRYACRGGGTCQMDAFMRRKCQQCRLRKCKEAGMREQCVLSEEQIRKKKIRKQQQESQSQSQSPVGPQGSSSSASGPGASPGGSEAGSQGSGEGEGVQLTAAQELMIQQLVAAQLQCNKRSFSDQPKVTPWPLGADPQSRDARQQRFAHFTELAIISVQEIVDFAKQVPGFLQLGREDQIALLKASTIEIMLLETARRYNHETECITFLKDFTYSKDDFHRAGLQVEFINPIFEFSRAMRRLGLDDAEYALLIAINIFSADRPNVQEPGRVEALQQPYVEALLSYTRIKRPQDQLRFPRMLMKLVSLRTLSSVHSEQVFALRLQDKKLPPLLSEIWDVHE

Broadly, the IC50 is the midpoint of a concentration-inhibition curve. A low value points to greater potency in that assay. In assay [1], `C[C@H](CCC(=O)N1CCN(c2ccncn2)[C@@H](C)C1)[C@H]1CC[C@H]2[C@@H]3CC=C4C[C@@H](O)CC[C@]4(C)[C@H]3CC[C@]12C` [Example 575, (4R)-4-[(1R,3aS,3bS,7S,9aR,9bS,11aR)-7-hydroxy-9a,11a-dimethyl-1H,2H,3H,3aH,3bH,4H,6H,7H,8H,9H,9aH,9bH,10H,11H,11aH-cyclopenta[a]phenanthren-1-yl]-1-[(3S)-3-methyl-4-(pyrimidin-4-yl)piperazin-1-yl]pentan-1-one] gave an IC50 of under 250 nM. Besides, the EC50 in assay [2] is over 10000 nM.
The like results for `CC(C)OC(=O)N1CCN(C(=O)CC[C@@H](C)[C@H]2CC[C@H]3[C@@H]4CC=C5C[C@@H](O)CC[C@]5(C)[C@H]4CC[C@]23C)C[C@@H]1C` [Example 576, isopropyl(S)-4-((R)-4-((3S,8S,9S,10R,13R,14S,17R)-3-hydroxy-10,13-dimethyl-2,3,4,7,8,9,10,11,12,13,14,15,16,17-tetradecahydro-1H-cyclopenta[a]phenanthren-17-yl)pentanoyl)-2-methylpiperazine-1-carboxylate] were, in that order, under 250 nM and over 10000 nM.
Taken in the same sequence, the figures for `C[C@H](CCC(=O)N1CCN(C(=O)c2ccncc2)[C@@H](C)C1)[C@H]1CC[C@H]2[C@@H]3CC=C4C[C@@H](O)CC[C@]4(C)[C@H]3CC[C@]12C` [Example 577, (R)-4-((3S,8S,9S,10R,13R,14S,17R)-3-hydroxy-10,13-dimethyl-2,3,4,7,8,9,10,11,12,13,14,15,16,17-tetradecahydro-1H-cyclopenta[a]phenanthren-17-yl)-1-((S)-4-isonicotinoyl-3-methylpiperazin-1-yl)pentan-1-one] were under 250 nM and over 10000 nM.
The like results for `C[C@H](CCC(=O)N1CCN(C(=O)c2cnn(C)c2)C[C@@H]1C)[C@H]1CC[C@H]2[C@@H]3CC=C4C[C@@H](O)CC[C@]4(C)[C@H]3CC[C@]12C` [Example 578, (R)-4-((3S,8S,9S,10R,13R,14S,17R)-3-hydroxy-10,13-dimethyl-2,3,4,7,8,9,10,11,12,13,14,15,16,17-tetradecahydro-1H-cyclopenta[a]phenanthren-17-yl)-1-((S)-2-methyl-4-(1-methyl-1H-pyrazole-4-carbonyl)piperazin-1-yl)pentan-1-one] were, in that order, under 250 nM and over 10000 nM.
For `COC(=O)N1CCN(C(=O)CC[C@@H](C)[C@H]2CC[C@H]3[C@@H]4CC=C5C[C@@H](O)CC[C@]5(C)[C@H]4CC[C@]23C)[C@@H](C)C1` [Example 579, Methyl(S)-4-((R)-4-((3S,8S,9S,10R,13R,14S,17R)-3-hydroxy-10,13-dimethyl-2,3,4,7,8,9,10,11,12,13,14,15,16,17-tetradecahydro-1H-cyclopenta[a]phenanthren-17-yl)pentanoyl)-3-methylpiperazine-1-carboxylate], the IC50 in assay [1] is under 250 nM. In assay [2], the EC50 was over 10000 nM.
Turning to `C[C@H](CCC(=O)N1CCN(c2ccncc2)C[C@@H]1C)[C@H]1CC[C@H]2[C@@H]3CC=C4C[C@@H](O)CC[C@]4(C)[C@H]3CC[C@]12C` [Example 580, (R)-4-((3S,8S,9S,10R,13R,14S,17R)-3-hydroxy-10,13-dimethyl-2,3,4,7,8,9,10,11,12,13,14,15,16,17-tetradecahydro-1H-cyclopenta[a]phenanthren-17-yl)-1-((S)-2-methyl-4-(pyridin-4-yl)piperazin-1-yl)pentan-1-one], the IC50 in assay [1] was under 250 nM. In addition, the EC50 in assay [2] was over 10000 nM.
Taken in the same sequence, the figures for `C[C@H](CCC(=O)N1CCN(C(=O)c2cnccn2)C[C@@H]1C)[C@H]1CC[C@H]2[C@@H]3CC=C4C[C@@H](O)CC[C@]4(C)[C@H]3CC[C@]12C` [Example 581, (R)-4-((3S,8S,9S,10R,13R,14S,17R)-3-hydroxy-10,13-dimethyl-2,3,4,7,8,9,10,11,12,13,14,15,16,17-tetradecahydro-1H-cyclopenta[a]phenanthren-17-yl)-1-((S)-2-methyl-4-(pyrazine-2-carbonyl)piperazin-1-yl)pentan-1-one] were under 250 nM and over 10000 nM.
In assay [1], `C[C@H](CCC(=O)N1CCN(C(=O)N(C)C)C[C@@H]1C)[C@H]1CC[C@H]2[C@@H]3CC=C4C[C@@H](O)CC[C@]4(C)[C@H]3CC[C@]12C` [Example 582, (S)-4-((R)-4-((3S,8S,9S,10R,13R,14S,17R)-3-hydroxy-10,13-dimethyl-2,3,4,7,8,9,10,11,12,13,14,15,16,17-tetradecahydro-1H-cyclopenta[a]phenanthren-17-yl)pentanoyl)-N,N,3-trimethylpiperazine-1-carboxamide] registered an IC50 of under 250 nM. The EC50 in assay [2] is over 10000 nM.
Taken in the same sequence, the figures for `CCC(=O)N1CCN(C(=O)CC[C@@H](C)[C@H]2CC[C@H]3[C@@H]4CC=C5C[C@@H](O)CC[C@]5(C)[C@H]4CC[C@]23C)[C@@H](C)C1` [Example 583, (4R)-4-[(1R,3aS,3bS,7S,9aR,9bS,11aR)-7-hydroxy-9a,11a-dimethyl-1H,2H,3H,3aH,3bH,4H,6H,7H,8H,9H,9aH,9bH,10H,11H,11aH-cyclopenta[a]phenanthren-1-yl]-1-[(2S)-2-methyl-4-propanoylpiperazin-1-yl]pentan-1-one] were under 250 nM and over 10000 nM.
The like results for `C[C@H](CCC(=O)N1CCN(C(=O)OC2CC2)C[C@@H]1C)[C@H]1CC[C@H]2[C@@H]3CC=C4C[C@@H](O)CC[C@]4(C)[C@H]3CC[C@]12C` [Example 584] were, in that order, under 250 nM and over 10000 nM.
Taken in the same sequence, the figures for `C[C@H](CCC(=O)N1CC[C@H](Oc2ccncc2)C[C@@H]1C)[C@H]1CC[C@H]2[C@@H]3CC=C4C[C@@H](O)CC[C@]4(C)[C@H]3CC[C@]12C` [Example 585, (R)-4-((3S,8S,9S,10R,13R,14S,17R)-3-hydroxy-10,13-dimethyl-2,3,4,7,8,9,10,11,12,13,14,15,16,17-tetradecahydro-1H-cyclopenta[a]phenanthren-17-yl)-1-((2S,4S)-2-methyl-4-(pyridin-4-yloxy)piperidin-1-yl)pentan-1-one] were under 250 nM and 250 to 1000 nM.
The compound `C[C@H](CCC(=O)N1CCN(C(=O)c2cn(C)nn2)C[C@@H]1C)[C@H]1CC[C@H]2[C@@H]3CC=C4C[C@@H](O)CC[C@]4(C)[C@H]3CC[C@]12C` [Example 587, (R)-4-((3S,8S,9S,10R,13R,14S,17R)-3-hydroxy-10,13-dimethyl-2,3,4,7,8,9,10,11,12,13,14,15,16,17-tetradecahydro-1H-cyclopenta[a]phenanthren-17-yl)-1-((S)-2-methyl-4-(1-methyl-1H-1,2,3-triazole-4-carbonyl)piperazin-1-yl)pentan-1-one] returned an IC50 in assay [1] of under 250 nM. Besides, the EC50 in assay [2] was over 10000 nM.
In the case of `C[C@H](CCC(=O)N1CCN(c2ccncn2)C[C@@H]1C)[C@H]1CC[C@H]2[C@@H]3CC=C4C[C@@H](O)CC[C@]4(C)[C@H]3CC[C@]12C` [Example 588, (4R)-4-[(1R,3aS,3bS,7S,9aR,9bS,11aR)-7-hydroxy-9a,11a-dimethyl-1H,2H,3H,3aH,3bH,4H,6H,7H,8H,9H,9aH,9bH,10H,11H,11aH-cyclopenta[a]phenanthren-1-yl]-1-[(2S)-2-methyl-4-(pyrimidin-4-yl)piperazin-1-yl]pentan-1-one], the IC50 in assay [1] is under 250 nM. For the same compound, the EC50 in assay [2] was over 10000 nM.
On to `CC(C)OC(=O)N1CCN(C(=O)CC[C@@H](C)[C@H]2CC[C@H]3[C@@H]4CC=C5C[C@@H](O)CC[C@]5(C)[C@H]4CC[C@]23C)[C@@H](C)C1` [Example 589, Isopropyl(S)-4-((R)-4-((3S,8S,9S,10R,13R,14S,17R)-3-hydroxy-10,13-dimethyl-2,3,4,7,8,9,10,11,12,13,14,15,16,17-tetradecahydro-1H-cyclopenta[a]phenanthren-17-yl)pentanoyl)-3-methylpiperazine-1-carboxylate], for which the IC50 in assay [1] is under 250 nM. The EC50 in assay [2] is over 10000 nM.
As to `C[C@H](CCC(=O)N1CCN(C(=O)c2ccncc2)C[C@@H]1C)[C@H]1CC[C@H]2[C@@H]3CC=C4C[C@@H](O)CC[C@]4(C)[C@H]3CC[C@]12C` [Example 590, (R)-4-((3S,8S,9S,10R,13R,14S,17R)-3-hydroxy-10,13-dimethyl-2,3,4,7,8,9,10,11,12,13,14,15,16,17-tetradecahydro-1H-cyclopenta[a]phenanthren-17-yl)-1-((S)-4-isonicotinoyl-2-methylpiperazin-1-yl)pentan-1-one], the IC50 in assay [1] was under 250 nM. The EC50 in assay [2] is over 10000 nM.
`COC(=O)N1CCC(C(=O)NC[C@@H](C)[C@H]2CC[C@H]3[C@@H]4CC=C5C[C@@H](O)CC[C@]5(C)[C@H]4CC[C@]23C)CC1` [Example 591, Methyl 4-{[(2S)-2-[(1R,3aS,3bS,7S,9aR,9bS,11aS)-7-hydroxy-9a,11a-dimethyl-1H,2H,3H,3aH,3bH,4H,6H,7H,8H,9H,9aH,9bH,10H,11H,11aH-cyclopenta[a]phenanthren-1-yl]propyl]carbamoyl}piperidine-1-carboxylate] returned an IC50 in assay [1] of under 250 nM. Also, in assay [2], the EC50 is over 10000 nM.
With `COC(=O)N1CCN(C(=O)C[C@@H](C)[C@H]2CC[C@H]3[C@@H]4CC=C5C[C@@H](O)CC[C@]5(C)[C@H]4CC[C@]23C)CC1` [Example 593, Methyl 4-[(3R)-3-[(1R,3aS,3bS,7S,9aR,9bS,11aR)-7-hydroxy-9a,11a-dimethyl-1H,2H,3H,3aH,3bH,4H,6H,7H,8H,9H,9aH,9bH,10H,11H,11aH-cyclopenta[a]phenanthren-1-yl]butanoyl]piperazine-1-carboxylate], in assay [1], the IC50 lay in the range of 1000 to 10000 nM. Besides, in assay [2], the EC50 was over 10000 nM.
